Assay results taken from patent US20260209152A1, “Substituted Hydroxystilbene Compounds and Derivatives, Synthesis and Uses Thereof” (Kynan Duke IP, LLC, priority 2019, published 2026).

How the values were obtained:
Assay in all cases: CellTiter Glo cell viability assay
[1] = tested on: Colon cancer HT-29/HTB-38; assay type: cell-based; settings: Homo sapiens, 11 dilutions 3-0.00001 μM
Experimental: (§1) 1.7*10^3 cells/well were seeded in quadruplicates in 96-well plate after plating. Drugs were added at 5 μM and 2-fold dilutions over 18 concentrations (0.000038146-5 […] range) to generate a dose-response curve. Cell growth was assessed on day 1, 3 and 5 after drug treatments using the CellTiter Glo Luminescence Cell Viability Assay (Promega) according to manufacturer's protocol. Thermo Scientific Varioskan LUX Multimode Microplate instrument was used for plate reading. Data are expressed as mean luminescence (arbitrary units) ±S.D.
(§2) Cell Viability Assays were employed to determine the concentration of Compound 1 (KYN-001) and analogues where the response is reduced by half. For each treatment of cancer cells, 1, 2, 5, 10 and 20 μM solutions of compounds were applied. GraphPad Prism 7 software was used to fit dose response curves. Relative Luminescence Units were plotted against the log values of the doses used and the nonlinear regression model was used for data analysis.
(§3) IC50 (μM) values correspond to log(inhibitor) vs. response (four parameters) and dose-response graphs were generated using GraphPad Prism8.

[2] = tested on: Neuroblastoma BE(2)-C/CRL-2268; assay type: cell-based; settings: Homo sapiens, 11 dilutions 3-0.00001 μM
Experimental: as §1, §2, §3

[3] = tested on: Liver cancer SNU-449/CRL-2234; assay type: cell-based; settings: Homo sapiens, 11 dilutions 3-0.00001 μM
Experimental: as §1, §2, §3

[4] = tested on: Neuroblastoma SK-N-DZ/CRL-2149; assay type: cell-based; settings: Homo sapiens, 11 dilutions 3-0.00001 μM
Experimental: as §1, §2, §3

[5] = tested on: Osteosarcoma MG-63/CRL-1427; assay type: cell-based; settings: Homo sapiens, 11 dilutions 3-0.00001 μM
Experimental: as §1, §2, §3

[6] = tested on: Colon cancer SW620/CCL-227; assay type: cell-based; settings: Homo sapiens, SW-620, 11 dilutions 3-0.00001 μM
Experimental: as §1, §2, §3

[7] = tested on: Muscle Ewing's Sarcoma A-673/CRL-1598; assay type: cell-based; settings: Homo sapiens, A673, 11 dilutions 3-0.00001 μM
Experimental: as §1, §2, §3

[8] = tested on: Neuroblastoma SK-N-FI/CRL-2142; assay type: cell-based; settings: Homo sapiens, 11 dilutions 3-0.00001 μM
Experimental: as §1, §2, §3

[9] = tested on: Neuroblastoma CHP-212/CRL-2273; assay type: cell-based; settings: Homo sapiens, 11 dilutions 3-0.00001 μM
Experimental: as §1, §2, §3

Rhabomyosarcoma TE 159.T = assay type: cell-based, human; settings: Homo sapiens; TE 159.T/CRL-7752; 11 dilutions 3-0.00001 μM; read-out: IC50
Outline: (§4)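 Cells were seeded at 1.7*10^3 cells/well in quadruplicate and treated with 18 two-fold dilutions from 5 μM (0.000038146–5 μM), or with 1, 2, 5, 10 and 20 μM. Viability was read by CellTiter Glo luminescence on days 1, 3 and 5, and IC50 came from nonlinear regression of RLU against log dose.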

Tongue UPCI: SCC090 = assay type: cell-based, human; settings: Homo sapiens; UPCI: SCC090/CRL-3239; 11 dilutions 3-0.00001 μM; read-out: IC50
Outline: as §4

Pancreatic BxPC3 = assay type: cell-based, human; settings: Homo sapiens; BxPC-3/CRL-1687; 11 dilutions 3-0.00001 μM; read-out: IC50
Outline: as §4

Lung NCI-H1563 = assay type: cell-based, human; settings: Homo sapiens; NCI-H1563/CRL-5875; 11 dilutions 3-0.00001 μM; read-out: IC50
Outline: as §4

Liver SNU-398 = assay type: cell-based, human; settings: Homo sapiens; SNU-398/CRL-2233; 11 dilutions 3-0.00001 μM; read-out: IC50
Outline: as §4

Kidney Caki-1 = assay type: cell-based, human; settings: Homo sapiens; Caki-1/HTB-46; 11 dilutions 3-0.00001 μM; read-out: IC50
Outline: as §4

Lung NCI-H1573 = assay type: cell-based, human; settings: Homo sapiens; NCI-H1573/CRL-5877; 11 dilutions 3-0.00001 μM; read-out: IC50
Outline: as §4

Lung NCI-H2126 = assay type: cell-based, human; settings: Homo sapiens; NCI-H2126/CCL-256; 11 dilutions 3-0.00001 μM; read-out: IC50
Outline: as §4

Pharynx FADU = assay type: cell-based, human; settings: Homo sapiens; Fadu/HTB-43; 11 dilutions 3-0.00001 μM; read-out: IC50
Outline: as §4

Kidney Caki-2 = assay type: cell-based, human; settings: Homo sapiens; Caki-2/HTB-47; 11 dilutions 3-0.00001 μM; read-out: IC50
Outline: as §4

Bladder SCABER = assay type: cell-based, human; settings: Homo sapiens; SCaBER/HTB-3; 11 dilutions 3-0.00001 μM; read-out: IC50
Outline: as §4

Pharynx DETROIT = assay type: cell-based, human; settings: Homo sapiens; Detroit 562/CCL-138; 11 dilutions 3-0.00001 μM; read-out: IC50
Outline: as §4

Liver SNU-423 = assay type: cell-based, human; settings: Homo sapiens; SNU-423/CRL-2238; 11 dilutions 3-0.00001 μM; read-out: IC50
Outline: as §4

[10] = tested on: Hypo-pharynx UPCI: SCC152; assay type: cell-based, human; settings: Homo sapiens; UPCI: SCC152/CRL-3240; 11 dilutions 3-0.00001 μM; read-out: IC50
Outline: as §4

Tongue SCC-4 = assay type: cell-based, human; settings: Homo sapiens; SCC-4/CRL-1624; 11 dilutions 3-0.00001 μM; read-out: IC50
Outline: as §4

## COc1cc(/C=C/c2cc(O)cc(OC)c2CC=C(C)C)ccc1NC=O [Compound 27, (E)-N-(4-(5-hydroxy-3-methoxy-2-(3-methylbut-2-en-1-yl)styryl)-2-methoxyphenyl)formamide]
[1]
  IC50: 432 nM
[2]
  IC50: 13.6 nM
[3]
  IC50: 15.1 nM
[4]
  IC50: 32.6 nM
[5]
  IC50: 82.5 nM
[6]
  IC50: 31.7 nM
[7]
  IC50: 229 nM
[8]
  IC50: 15.7 nM
[9]
  IC50: 5.7 nM
Rhabomyosarcoma TE 159.T
  IC50: 31 nM
Tongue UPCI: SCC090
  IC50: 20 nM
Pancreatic BxPC3
  IC50: 302 nM
Lung NCI-H1563
  IC50: 59.8 nM
Liver SNU-398
  IC50: 54 nM
Kidney Caki-1
  IC50: 15.4 nM
Lung NCI-H1573
  IC50: 48 nM
Lung NCI-H2126
  IC50: 31 nM
Pharynx FADU
  IC50: 28.6 nM
Kidney Caki-2
  IC50: 1550 nM
Bladder SCABER
  IC50: 10.9 nM
Pharynx DETROIT
  IC50: 20.3 nM
Liver SNU-423
  IC50: 53.5 nM
[10]
  IC50: 36.6 nM
Tongue SCC-4
  IC50: 11.4 nM
